Like-named read-outs stand apart in the source and are kept apart here. Non-standard residues stand in square brackets, D forms with d. Residues, ends and D or L forms follow the SMILES beside them. No end group written: not given here. Orn = NCCC[C@H](N)C(=O)O
Key:
PKG1α (h) = target: T1, PKG1α (h) (Homo sapiens, UniProt Q13976); assay: PKG1α kinase activity assay, cell free; assay type: biochemical
T1 construct: purchased Eurofins Pharma Discovery Services UK Ltd (contract assay service)
T1 sequence (Q13976 1-671): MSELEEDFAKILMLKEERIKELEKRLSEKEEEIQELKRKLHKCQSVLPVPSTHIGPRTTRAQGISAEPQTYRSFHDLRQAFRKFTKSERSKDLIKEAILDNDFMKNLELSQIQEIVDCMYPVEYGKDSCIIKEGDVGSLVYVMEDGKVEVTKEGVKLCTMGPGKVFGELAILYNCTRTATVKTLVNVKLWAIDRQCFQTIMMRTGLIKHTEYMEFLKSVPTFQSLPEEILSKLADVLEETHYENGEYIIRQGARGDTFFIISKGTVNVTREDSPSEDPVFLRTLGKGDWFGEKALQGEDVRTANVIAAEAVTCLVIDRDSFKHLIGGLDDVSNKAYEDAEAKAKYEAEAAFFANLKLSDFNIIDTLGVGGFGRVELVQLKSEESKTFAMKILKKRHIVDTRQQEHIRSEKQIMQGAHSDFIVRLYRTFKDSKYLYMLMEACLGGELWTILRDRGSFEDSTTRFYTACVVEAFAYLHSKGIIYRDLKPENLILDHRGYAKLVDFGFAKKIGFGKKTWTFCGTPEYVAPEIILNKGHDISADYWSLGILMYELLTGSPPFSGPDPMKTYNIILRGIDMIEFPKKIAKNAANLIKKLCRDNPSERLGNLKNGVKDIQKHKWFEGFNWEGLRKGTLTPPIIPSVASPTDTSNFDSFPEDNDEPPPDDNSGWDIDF
Protocol: (§1) The capacity of test peptides to inhibit the activity of the kinases PKG1α, PKG1β, and Src family kinases in a cell free assay was assessed. The test peptides were amidated at their C-terminal end (indicated by “—NH2”) unless otherwise noted. Kinase activity assays were conducted by Eurofins Pharma Discovery Services UK Ltd (Dundee Technology Park, Dundee, United Kingdom) and Reaction Biology Corp. (Malvern, Pa., USA).
(§2) All test peptides are prepared to 50× final assay concentration in 100% DMSO. This working stock of the test compound is added to assay wells as the first component in the reaction, followed by the remaining components of the respective assay protocols described below. There is no pre-incubation step between the test peptide and the kinase prior to initiation of the reaction. The kinases are diluted in buffer (20 mM MOPS, 1 mM EDTA, 0.01% Brij-35, 5% Glycerol, 0.1% β-mercaptoethanol, 1 mg/mL BSA) prior to addition to the reaction mix.
(§3) Positive control wells contain all components of the reaction, except the test peptide of interest. However, DMSO (at a final concentration of 2%) is included in positive control wells to control for solvent effects. Negative control wells contain all components of the reaction, with a reference inhibitor (staurosporine) replacing the test peptide. This abolishes kinase activity and establishes a base-line (0% kinase activity). Kinase assay protocols (Eurofins Pharma Discovery Services UK Ltd, Dundee Technology Park, Dundee, United Kingdom) are described below. Of the Src family kinases, only the assay protocol for c-Src is shown.
(§4) PKG1α (h) is incubated with 8 mM MOPS pH 7.0, 0.2 mM EDTA, 10 μM cGMP, 200 μM peptide RRRLSFAEPG, 10 mM magnesium acetate and [γ-^33P]-ATP (specific activity approx. 500 cpm/pmol, concentration as required). The reaction is initiated by the addition of the MgATP mix. After incubation for 40 minutes at room temperature, the reaction is stopped by the addition of 3% phosphoric acid solution. A 10 μL aliquot of the reaction is then spotted onto a P30 filtermat and washed three times for 5 mins in 75 mM phosphoric acid and once in methanol prior to drying and scintillation counting.

PKG1β (h) = target: T2, PKG1β (h) (Homo sapiens, UniProt Q13976); assay: PKG1β kinase activity assay, cell free; assay type: biochemical
T2 construct: purchased Eurofins Pharma Discovery Services UK Ltd (contract assay service)
T2 sequence (Q13976 1-686 isoform Q13976-2): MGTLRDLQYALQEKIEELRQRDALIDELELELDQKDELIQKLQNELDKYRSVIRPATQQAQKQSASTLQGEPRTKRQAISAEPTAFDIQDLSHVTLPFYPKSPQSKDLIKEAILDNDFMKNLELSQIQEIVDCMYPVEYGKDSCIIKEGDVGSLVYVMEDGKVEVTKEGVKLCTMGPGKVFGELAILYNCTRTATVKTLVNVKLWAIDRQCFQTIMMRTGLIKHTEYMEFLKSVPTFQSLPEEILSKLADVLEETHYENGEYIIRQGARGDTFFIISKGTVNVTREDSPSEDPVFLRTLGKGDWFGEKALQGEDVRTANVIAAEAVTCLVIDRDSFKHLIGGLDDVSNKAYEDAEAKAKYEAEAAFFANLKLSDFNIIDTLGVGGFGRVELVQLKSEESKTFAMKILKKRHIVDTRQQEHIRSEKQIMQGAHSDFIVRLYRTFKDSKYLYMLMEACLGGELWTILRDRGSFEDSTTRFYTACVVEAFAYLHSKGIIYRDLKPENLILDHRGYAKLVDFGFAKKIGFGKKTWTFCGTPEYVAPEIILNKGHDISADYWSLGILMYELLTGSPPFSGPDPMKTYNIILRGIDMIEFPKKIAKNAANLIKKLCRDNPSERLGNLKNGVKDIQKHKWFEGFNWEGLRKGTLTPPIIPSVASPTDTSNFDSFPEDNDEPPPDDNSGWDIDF
Protocol: as §1, §2, §3
as §4, with “PKG1b(h)” for “PKG1α (h)”, “μM” for “μM peptide”

c-Src (h) = target: T3, c-Src (h) (Homo sapiens, UniProt P12931); assay: c-Src kinase activity assay, cell free; assay type: biochemical
T3 construct: purchased Eurofins Pharma Discovery Services UK Ltd (contract assay service)
T3 sequence (P12931 whole entry): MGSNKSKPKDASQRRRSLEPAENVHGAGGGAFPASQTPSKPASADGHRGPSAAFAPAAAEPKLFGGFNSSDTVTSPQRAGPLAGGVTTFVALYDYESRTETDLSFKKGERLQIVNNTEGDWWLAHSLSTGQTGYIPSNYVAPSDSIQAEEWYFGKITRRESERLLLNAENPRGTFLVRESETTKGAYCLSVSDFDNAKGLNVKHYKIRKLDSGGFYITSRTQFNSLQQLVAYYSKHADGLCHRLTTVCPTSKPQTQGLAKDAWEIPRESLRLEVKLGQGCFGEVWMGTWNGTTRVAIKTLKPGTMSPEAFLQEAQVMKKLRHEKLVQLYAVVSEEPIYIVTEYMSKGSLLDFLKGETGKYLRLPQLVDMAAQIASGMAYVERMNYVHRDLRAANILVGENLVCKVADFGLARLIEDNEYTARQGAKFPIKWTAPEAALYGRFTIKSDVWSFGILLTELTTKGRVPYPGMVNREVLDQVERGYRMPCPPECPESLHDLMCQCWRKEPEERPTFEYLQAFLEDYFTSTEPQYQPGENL
Protocol: as §1, §2, §3
as §4, with “c-Src (h)” for “PKG1α (h)”, “EDTA, 250” for “EDTA, 10”, “μM KVEKIGEGTYGVVYK (Cdc2 peptide),” for “μM cGMP, 200 μM peptide RRRLSFAEPG,”, “mM MgAcetate” for “mM magnesium acetate”, “5 minutes” for “5 mins”

[1] = Resistance to simulated gastric fluid; assay type: in vitro ADME
Protocol: Test 14 Arg peptides consisting of 14 contiguous L- or D-arginine amino acids were tested for resistance to simulated gastric fluid (porcine pepsin in a HCl and NaCl solution) at a pH of 2.01 for a period of 24 hours. Negligible degradation of each peptide was observed by exposure to the simulated gastric fluid over the 24 hour test period.

[2] = cell free, 10 μM cGMP, 40 minutes at room temperature, read-out: PKG1α IC50
[3] = cell free, 10 μM cGMP, 40 minutes at room temperature, read-out: PKG1β IC50
[4] = cell free, 40 minutes at room temperature, read-out: c-Src IC50

RRRRRRRRRRRRRRRRRRRR-NH2 [IK00200]
IC50 (PKG1α (h); [2]): 6 nM
IC50 (PKG1β (h); [3]): 6 nM

NCCC[C@H](NC(=O)[C@H](CCCN)NC(=O)[C@H](CCCN)NC(=O)[C@H](CCCN)NC(=O)[C@H](CCCN)NC(=O)[C@H](CCCN)NC(=O)[C@H](CCCN)NC(=O)[C@H](CCCN)NC(=O)[C@H](CCCN)NC(=O)[C@@H](N)CCCN)C(N)=O [IKNOR10, OrnOrnOrnOrnOrnOrnOrnOrnOrnOrn-NH2, reference compound] (H-[Orn][Orn][Orn][Orn][Orn][Orn][Orn][Orn][Orn][Orn]-NH2; N-terminus assumed)
IC50 (c-Src (h)): 7 nM
IC50 (PKG1α (h)): > 1000 nM
IC50 (PKG1β (h)): > 1000 nM

HHHHHHHHHH-NH2 [IK00010, HHHHHHHHHH-NH2, reference compound]
IC50 (c-Src (h); [4]): > 1000 nM
IC50 (PKG1α (h); [2]): > 1000 nM
IC50 (PKG1β (h); [3]): > 1000 nM

N=C(N)NCCC[C@H](NC(=O)[C@H](CCCNC(=N)N)NC(=O)[C@H](CCCNC(=N)N)NC(=O)[C@H](CCCNC(=N)N)NC(=O)[C@H](CCCNC(=N)N)NC(=O)[C@H](CCCNC(=N)N)NC(=O)[C@H](CCCNC(=N)N)NC(=O)[C@H](CCCNC(=N)N)NC(=O)[C@@H](N)CCCNC(=N)N)C(N)=O [IK00900, RRRRRRRRR-NH2]
IC50 (c-Src (h); [4]): 4 nM
IC50 (PKG1α (h); [2]): 33.5 nM
IC50 (PKG1β (h); [3]): 22 nM

N=C(N)NCCC[C@H](NC(=O)[C@H](CCCNC(=N)N)NC(=O)[C@H](CCCNC(=N)N)NC(=O)[C@H](CCCNC(=N)N)NC(=O)[C@H](CCCNC(=N)N)NC(=O)[C@H](CCCNC(=N)N)NC(=O)[C@H](CCCNC(=N)N)NC(=O)[C@H](CCCNC(=N)N)NC(=O)[C@H](CCCNC(=N)N)NC(=O)[C@H](CCCNC(=N)N)NC(=O)[C@H](CCCNC(=N)N)NC(=O)[C@H](CCCNC(=N)N)NC(=O)[C@H](CCCNC(=N)N)NC(=O)[C@@H](N)CCCNC(=N)N)C(=O)O [IK0140H, RRRRRRRRRRRRRR]
IC50 (c-Src (h)): > 1000 nM
IC50 (PKG1α (h)): 7 nM
IC50 (PKG1β (h)): 7 nM

N=C(N)NCCC[C@H](NC(=O)[C@H](CCCNC(=N)N)NC(=O)[C@H](CCCNC(=N)N)NC(=O)[C@H](CCCNC(=N)N)NC(=O)[C@H](CCCNC(=N)N)NC(=O)[C@@H](N)CCCNC(=N)N)C(N)=O [IK00600, RRRRRR-NH2]
IC50 (c-Src (h); [4]): 100 nM
IC50 (PKG1α (h); [2]): > 1000 nM
IC50 (PKG1β (h); [3]): 457 nM

RRRRRRRRRRRRRRRR-NH2 [IK01600, RRRRRRRRRRRRRRRR-NH2]
IC50 (c-Src (h); [4]): 4 nM
IC50 (PKG1α (h); [2]): 6 nM
IC50 (PKG1β (h); [3]): 4 nM

N=C(N)NCCC[C@H](NC(=O)[C@H](CCCNC(=N)N)NC(=O)[C@H](CCCNC(=N)N)NC(=O)[C@H](CCCNC(=N)N)NC(=O)[C@H](CCCNC(=N)N)NC(=O)[C@H](CCCNC(=N)N)NC(=O)[C@H](CCCNC(=N)N)NC(=O)[C@H](CCCNC(=N)N)NC(=O)[C@H](CCCNC(=N)N)NC(=O)[C@H](CCCNC(=N)N)NC(=O)[C@H](CCCNC(=N)N)NC(=O)[C@@H](N)CCCNC(=N)N)C(N)=O [IK01200, RRRRRRRRRRRR-NH2]
IC50 (c-Src (h)): 6 nM
IC50 (PKG1α (h)): 8 nM
IC50 (PKG1β (h)): 7 nM

N=C(N)NCCC[C@@H](N)C(=O)N[C@H](CCCNC(=N)N)C(=O)N[C@H](CCCNC(=N)N)C(=O)N[C@H](CCCNC(=N)N)C(=O)N[C@H](CCCNC(=N)N)C(=O)N[C@H](CCCNC(=N)N)C(=O)N[C@H](CCCNC(=N)N)C(=O)N[C@H](CCCNC(=N)N)C(=O)N[C@H](CCCNC(=N)N)C(=O)N[C@H](CCCNC(=N)N)C(=O)N[C@H](CCCNC(=N)N)C(=O)N[C@H](CCCNC(=N)N)C(=O)N[C@H](CCCNC(=N)N)C(=O)N[C@H](CCCNC(=N)N)C(N)=O [IKD01400, rrrrrrrrrrrrrr-NH2]
IC50 (c-Src (h)): 6 nM
IC50 (PKG1α (h)): 11 nM
remaining at 1 h ([1]; pig, simulated gastric fluid with porcine pepsin, simulated gastric fluid pH 2.01, 1 hr, read-out: % of intact peptide observed): 98.9%
remaining at 4 h ([1]; pig, simulated gastric fluid with porcine pepsin, simulated gastric fluid pH 2.01, 4 hrs, read-out: % of intact peptide observed): 98.7%
remaining at 24 h ([1]; pig, simulated gastric fluid with porcine pepsin, simulated gastric fluid pH 2.01, 24 hrs, read-out: % of intact peptide observed): 97.5%
% of intact peptide observed ([1]; simulated gastric fluid pH 2.01, time 0): 98.79%
IC50 (PKG1β (h)): 10 nM

KKKKKKKKKK-NH2 [IK00K00, KKKKKKKKKK-NH2, reference compound]
IC50 (c-Src (h); [4]): 96 nM
IC50 (PKG1α (h); [2]): > 1000 nM
IC50 (PKG1β (h); [3]): > 1000 nM

N=C(N)NCCC[C@H](NC(=O)[C@H](CCCNC(=N)N)NC(=O)[C@H](CCCNC(=N)N)NC(=O)[C@H](CCCNC(=N)N)NC(=O)[C@H](CCCNC(=N)N)NC(=O)[C@H](CCCNC(=N)N)NC(=O)[C@H](CCCNC(=N)N)NC(=O)[C@H](CCCNC(=N)N)NC(=O)[C@H](CCCNC(=N)N)NC(=O)[C@@H](N)CCCNC(=N)N)C(N)=O [IK00100, RRRRRRRRRR-NH2]
IC50 (c-Src (h); [4]): 7 nM
IC50 (PKG1α (h); [2]): 16 nM
IC50 (PKG1β (h); [3]): 9 nM

N=C(N)NCCC[C@H](NC(=O)[C@H](CCCNC(=N)N)NC(=O)[C@H](CCCNC(=N)N)NC(=O)[C@H](CCCNC(=N)N)NC(=O)[C@H](CCCNC(=N)N)NC(=O)[C@H](CCCNC(=N)N)NC(=O)[C@H](CCCNC(=N)N)NC(=O)[C@@H](N)CCCNC(=N)N)C(N)=O [IK00800, RRRRRRRR-NH2]
IC50 (c-Src (h); [4]): 26 nM
IC50 (PKG1α (h); [2]): 75 nM
IC50 (PKG1β (h); [3]): 55 nM

Source: US20210000912A1, “Compositions And Methods For Prophylaxis Or Treatment Of Pain” (Interk Peptide Therapeutics Limited, priority 2017, published 2021)
